Experimental findings from ChEMBL document CHEMBL1145498, “A systematic interaction map of validated kinase inhibitors with Ser/Thr kinases” (Proc Natl Acad Sci U S A, 2007) are described below.

In experiment [1] the target is Serine/threonine-protein kinase 26 (Homo sapiens) (UniProt Q9P289).
The target of experiment [2] is Serine/threonine-protein kinase PLK1 (Homo sapiens) (UniProt P53350).
For experiment [3], the target named is Serine/threonine-protein kinase 10 (Homo sapiens) (UniProt O94804).
Experiment [4] deals with T1, Serine/threonine-protein kinase VRK3 (Homo sapiens) (UniProt Q8IV63).
T1 sequence (whole entry): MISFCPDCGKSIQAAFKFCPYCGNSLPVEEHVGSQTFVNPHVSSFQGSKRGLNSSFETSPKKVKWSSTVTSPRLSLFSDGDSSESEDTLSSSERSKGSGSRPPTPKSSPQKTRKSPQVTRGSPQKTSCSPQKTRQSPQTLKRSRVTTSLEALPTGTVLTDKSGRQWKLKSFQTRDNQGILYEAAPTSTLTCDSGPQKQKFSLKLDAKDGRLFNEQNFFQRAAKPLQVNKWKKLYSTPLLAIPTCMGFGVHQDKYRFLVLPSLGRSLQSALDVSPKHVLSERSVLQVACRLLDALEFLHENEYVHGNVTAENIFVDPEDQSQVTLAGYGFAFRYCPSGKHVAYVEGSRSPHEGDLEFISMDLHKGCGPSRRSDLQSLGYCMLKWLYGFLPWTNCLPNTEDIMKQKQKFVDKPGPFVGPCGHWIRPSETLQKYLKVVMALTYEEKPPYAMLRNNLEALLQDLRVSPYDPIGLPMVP

Experiment [5] has as its target Serine/threonine-protein kinase PAK 6 (Homo sapiens) (UniProt Q9NQU5).
Experiment [6] addresses 5'-AMP-activated protein kinase catalytic subunit alpha-2 (Homo sapiens) (UniProt P54646).
Experiment [7] addresses Tyrosine-protein kinase JAK1 (Homo sapiens) (UniProt P23458).
The target of experiment [8] is T2, Serine/threonine-protein kinase 17A (Homo sapiens) (UniProt Q9UEE5).
T2 sequence (whole entry): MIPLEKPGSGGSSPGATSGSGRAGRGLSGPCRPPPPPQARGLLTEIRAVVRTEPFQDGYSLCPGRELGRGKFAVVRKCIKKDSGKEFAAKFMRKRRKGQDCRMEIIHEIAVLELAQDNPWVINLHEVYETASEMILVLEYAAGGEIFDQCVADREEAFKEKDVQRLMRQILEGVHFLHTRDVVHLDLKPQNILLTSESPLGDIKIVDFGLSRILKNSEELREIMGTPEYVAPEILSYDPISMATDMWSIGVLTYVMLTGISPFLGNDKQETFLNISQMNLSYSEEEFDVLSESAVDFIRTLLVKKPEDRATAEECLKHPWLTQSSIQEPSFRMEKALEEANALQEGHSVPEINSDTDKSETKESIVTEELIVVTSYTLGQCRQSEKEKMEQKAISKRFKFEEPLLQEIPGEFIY

Experiment [9] deals with Serine/threonine-protein kinase pim-2 (Homo sapiens, UniProt Q9P1W9).
In experiment [10] the target is Calcium/calmodulin-dependent protein kinase type II subunit alpha (Homo sapiens) (UniProt Q9UQM7).
The target in experiment [11] is Casein kinase I isoform gamma-3 (Homo sapiens) (UniProt Q9Y6M4).
In experiment [12] the target is Casein kinase I isoform gamma-2 (Homo sapiens) (UniProt P78368).
Experiment [13] addresses Cyclin-dependent kinase-like 1 (Homo sapiens) (UniProt Q00532).
Experiment [14] addresses Serine/threonine-protein kinase Chk2 (Homo sapiens, UniProt O96017).
For experiment [15], the target named is Cyclin-dependent kinase 2 (Homo sapiens, UniProt P24941).
The target of experiment [16] is Serine/threonine-protein kinase pim-1 (Homo sapiens) (UniProt P11309).
Experiment [17] concerns the target Mitogen-activated protein kinase 6 (Homo sapiens) (UniProt Q16659).
Experiment [18] deals with T3, Serine/threonine-protein kinase PLK4 (Homo sapiens) (UniProt O00444).
T3 sequence (whole entry): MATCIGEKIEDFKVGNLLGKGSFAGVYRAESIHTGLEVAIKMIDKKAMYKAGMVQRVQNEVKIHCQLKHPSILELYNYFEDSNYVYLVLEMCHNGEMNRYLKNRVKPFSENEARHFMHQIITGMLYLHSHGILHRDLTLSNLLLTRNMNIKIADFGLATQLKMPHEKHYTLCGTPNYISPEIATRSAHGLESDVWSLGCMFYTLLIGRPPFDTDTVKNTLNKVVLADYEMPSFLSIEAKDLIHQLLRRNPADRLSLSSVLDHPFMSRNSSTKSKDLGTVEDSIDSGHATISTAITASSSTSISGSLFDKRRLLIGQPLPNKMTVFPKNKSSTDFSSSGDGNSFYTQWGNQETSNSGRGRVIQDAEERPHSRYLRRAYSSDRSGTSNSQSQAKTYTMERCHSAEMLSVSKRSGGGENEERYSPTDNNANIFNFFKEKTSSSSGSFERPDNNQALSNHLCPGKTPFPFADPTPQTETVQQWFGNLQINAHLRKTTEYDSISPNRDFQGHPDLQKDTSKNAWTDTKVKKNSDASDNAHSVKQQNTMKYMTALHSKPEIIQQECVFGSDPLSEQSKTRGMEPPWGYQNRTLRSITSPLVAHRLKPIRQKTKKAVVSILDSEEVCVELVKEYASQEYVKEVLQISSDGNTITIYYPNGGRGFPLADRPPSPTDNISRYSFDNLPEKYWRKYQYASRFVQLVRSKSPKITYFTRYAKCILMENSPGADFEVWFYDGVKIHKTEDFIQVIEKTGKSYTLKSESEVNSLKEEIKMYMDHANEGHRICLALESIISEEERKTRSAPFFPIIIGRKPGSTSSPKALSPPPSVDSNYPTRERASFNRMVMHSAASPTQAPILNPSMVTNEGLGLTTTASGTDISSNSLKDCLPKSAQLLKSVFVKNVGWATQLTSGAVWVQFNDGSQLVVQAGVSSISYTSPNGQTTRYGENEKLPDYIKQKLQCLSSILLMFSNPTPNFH

In experiment [19] the target is Dual specificity protein kinase CLK3 (Homo sapiens) (UniProt P49761).
Experiment [20] addresses Serine/threonine-protein kinase PAK 5 (Homo sapiens) (UniProt Q9P286).

Sequence of Serine/threonine-protein kinase Chk2 (O96017 whole entry): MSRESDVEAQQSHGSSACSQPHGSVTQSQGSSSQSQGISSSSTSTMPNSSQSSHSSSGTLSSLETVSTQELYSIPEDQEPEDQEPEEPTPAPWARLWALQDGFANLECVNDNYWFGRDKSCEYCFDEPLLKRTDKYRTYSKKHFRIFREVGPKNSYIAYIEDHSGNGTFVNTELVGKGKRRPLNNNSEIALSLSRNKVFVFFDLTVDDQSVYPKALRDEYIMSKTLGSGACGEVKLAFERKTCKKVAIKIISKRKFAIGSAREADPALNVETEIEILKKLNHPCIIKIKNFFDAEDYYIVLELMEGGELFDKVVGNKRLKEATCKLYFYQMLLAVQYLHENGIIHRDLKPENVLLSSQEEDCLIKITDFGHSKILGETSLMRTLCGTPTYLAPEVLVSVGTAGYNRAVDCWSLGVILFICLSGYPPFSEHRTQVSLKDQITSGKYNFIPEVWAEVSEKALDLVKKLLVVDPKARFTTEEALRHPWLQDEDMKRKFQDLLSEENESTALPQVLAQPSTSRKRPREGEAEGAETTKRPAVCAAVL
Sequence of Mitogen-activated protein kinase 6 (Homo sapiens) (Q16659 whole entry): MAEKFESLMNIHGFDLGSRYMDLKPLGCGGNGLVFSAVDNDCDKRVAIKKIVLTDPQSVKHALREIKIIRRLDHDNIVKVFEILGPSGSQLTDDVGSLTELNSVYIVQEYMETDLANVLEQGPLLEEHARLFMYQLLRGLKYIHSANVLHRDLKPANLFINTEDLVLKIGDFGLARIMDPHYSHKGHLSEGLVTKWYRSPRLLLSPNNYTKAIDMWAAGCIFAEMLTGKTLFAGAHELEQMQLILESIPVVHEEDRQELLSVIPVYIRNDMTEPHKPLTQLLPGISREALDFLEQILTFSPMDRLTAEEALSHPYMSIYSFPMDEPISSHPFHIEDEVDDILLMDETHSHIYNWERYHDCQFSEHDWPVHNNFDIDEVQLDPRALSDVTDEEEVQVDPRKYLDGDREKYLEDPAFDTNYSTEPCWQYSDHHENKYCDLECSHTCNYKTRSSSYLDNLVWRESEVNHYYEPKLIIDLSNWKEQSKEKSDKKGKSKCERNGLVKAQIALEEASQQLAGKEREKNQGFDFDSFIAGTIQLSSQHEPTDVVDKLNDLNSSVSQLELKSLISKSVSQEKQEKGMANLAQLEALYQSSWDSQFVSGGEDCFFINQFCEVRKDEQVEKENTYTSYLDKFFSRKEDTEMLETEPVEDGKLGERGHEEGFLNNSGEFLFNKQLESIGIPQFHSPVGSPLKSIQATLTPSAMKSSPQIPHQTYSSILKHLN
Sequence of Serine/threonine-protein kinase PAK 6 (Homo sapiens) (Q9NQU5 whole entry, looked up): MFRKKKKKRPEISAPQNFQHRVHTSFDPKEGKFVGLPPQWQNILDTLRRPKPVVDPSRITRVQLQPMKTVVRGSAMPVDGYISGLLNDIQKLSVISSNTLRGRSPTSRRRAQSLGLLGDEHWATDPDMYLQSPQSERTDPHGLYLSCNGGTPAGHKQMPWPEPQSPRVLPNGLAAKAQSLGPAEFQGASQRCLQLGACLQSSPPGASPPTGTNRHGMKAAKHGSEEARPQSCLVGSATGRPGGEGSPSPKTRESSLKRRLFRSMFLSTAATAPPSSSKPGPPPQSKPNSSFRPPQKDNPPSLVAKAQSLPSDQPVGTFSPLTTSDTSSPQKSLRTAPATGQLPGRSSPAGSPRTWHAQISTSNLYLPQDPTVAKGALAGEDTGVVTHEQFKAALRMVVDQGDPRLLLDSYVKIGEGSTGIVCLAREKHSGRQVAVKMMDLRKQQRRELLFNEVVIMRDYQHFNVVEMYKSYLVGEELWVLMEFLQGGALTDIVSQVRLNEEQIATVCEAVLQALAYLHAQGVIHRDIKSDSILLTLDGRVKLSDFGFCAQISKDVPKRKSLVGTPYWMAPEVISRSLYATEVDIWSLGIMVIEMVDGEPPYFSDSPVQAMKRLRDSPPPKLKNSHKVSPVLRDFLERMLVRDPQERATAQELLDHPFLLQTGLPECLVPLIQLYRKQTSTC
Sequence of 5'-AMP-activated protein kinase catalytic subunit alpha-2 (Homo sapiens) (P54646 whole entry, looked up): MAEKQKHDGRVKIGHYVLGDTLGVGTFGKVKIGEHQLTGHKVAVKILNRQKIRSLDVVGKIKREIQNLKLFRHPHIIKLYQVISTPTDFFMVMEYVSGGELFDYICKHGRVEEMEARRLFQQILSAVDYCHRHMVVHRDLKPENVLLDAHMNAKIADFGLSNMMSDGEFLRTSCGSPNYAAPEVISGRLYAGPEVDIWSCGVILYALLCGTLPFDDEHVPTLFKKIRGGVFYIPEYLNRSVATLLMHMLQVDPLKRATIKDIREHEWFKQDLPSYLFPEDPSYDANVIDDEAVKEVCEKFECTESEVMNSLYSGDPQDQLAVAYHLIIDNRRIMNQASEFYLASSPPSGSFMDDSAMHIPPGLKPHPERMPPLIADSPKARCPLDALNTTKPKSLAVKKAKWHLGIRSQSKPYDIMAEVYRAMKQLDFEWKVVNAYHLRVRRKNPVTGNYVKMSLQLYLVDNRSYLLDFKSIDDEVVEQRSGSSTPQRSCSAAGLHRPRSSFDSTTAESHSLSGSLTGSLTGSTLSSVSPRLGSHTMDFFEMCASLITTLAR
Sequence of Dual specificity protein kinase CLK3 (Homo sapiens) (P49761 whole entry, looked up): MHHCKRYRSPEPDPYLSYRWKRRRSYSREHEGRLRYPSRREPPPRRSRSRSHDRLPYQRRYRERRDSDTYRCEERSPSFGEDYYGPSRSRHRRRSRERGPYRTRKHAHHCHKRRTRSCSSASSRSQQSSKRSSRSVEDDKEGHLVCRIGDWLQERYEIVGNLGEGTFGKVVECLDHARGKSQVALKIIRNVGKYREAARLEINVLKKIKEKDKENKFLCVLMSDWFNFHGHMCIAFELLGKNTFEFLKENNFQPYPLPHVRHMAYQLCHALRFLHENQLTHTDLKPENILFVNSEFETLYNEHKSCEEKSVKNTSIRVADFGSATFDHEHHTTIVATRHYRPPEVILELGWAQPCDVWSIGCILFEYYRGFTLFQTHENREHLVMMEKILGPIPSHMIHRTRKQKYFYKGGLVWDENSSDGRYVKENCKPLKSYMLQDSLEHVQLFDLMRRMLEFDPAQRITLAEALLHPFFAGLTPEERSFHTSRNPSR
Sequence of Cyclin-dependent kinase-like 1 (Homo sapiens) (Q00532 whole entry): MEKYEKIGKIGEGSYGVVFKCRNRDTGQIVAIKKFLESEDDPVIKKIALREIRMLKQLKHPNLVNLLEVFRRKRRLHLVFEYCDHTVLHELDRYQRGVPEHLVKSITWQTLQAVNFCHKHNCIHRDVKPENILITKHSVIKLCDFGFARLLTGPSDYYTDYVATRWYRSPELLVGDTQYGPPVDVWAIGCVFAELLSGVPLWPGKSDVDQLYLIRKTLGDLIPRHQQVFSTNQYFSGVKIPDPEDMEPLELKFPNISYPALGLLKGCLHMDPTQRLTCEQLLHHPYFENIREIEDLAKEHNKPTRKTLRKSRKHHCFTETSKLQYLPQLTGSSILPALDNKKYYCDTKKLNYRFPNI
Sequence of Casein kinase I isoform gamma-3 (Homo sapiens) (Q9Y6M4 whole entry, looked up, canonical isoform): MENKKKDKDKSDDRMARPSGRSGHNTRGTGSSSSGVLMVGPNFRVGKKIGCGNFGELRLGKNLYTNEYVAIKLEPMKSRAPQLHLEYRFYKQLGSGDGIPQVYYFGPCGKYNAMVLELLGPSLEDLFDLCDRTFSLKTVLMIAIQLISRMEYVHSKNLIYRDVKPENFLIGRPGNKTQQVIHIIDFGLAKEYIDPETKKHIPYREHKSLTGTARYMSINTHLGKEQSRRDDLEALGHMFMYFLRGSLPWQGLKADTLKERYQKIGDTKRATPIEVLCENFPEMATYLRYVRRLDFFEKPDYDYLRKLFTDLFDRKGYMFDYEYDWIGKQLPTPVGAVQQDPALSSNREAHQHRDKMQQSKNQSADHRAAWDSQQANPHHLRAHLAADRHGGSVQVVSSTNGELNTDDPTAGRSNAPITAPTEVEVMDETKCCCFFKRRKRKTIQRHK
Sequence of Serine/threonine-protein kinase PAK 5 (Homo sapiens) (Q9P286 whole entry, looked up): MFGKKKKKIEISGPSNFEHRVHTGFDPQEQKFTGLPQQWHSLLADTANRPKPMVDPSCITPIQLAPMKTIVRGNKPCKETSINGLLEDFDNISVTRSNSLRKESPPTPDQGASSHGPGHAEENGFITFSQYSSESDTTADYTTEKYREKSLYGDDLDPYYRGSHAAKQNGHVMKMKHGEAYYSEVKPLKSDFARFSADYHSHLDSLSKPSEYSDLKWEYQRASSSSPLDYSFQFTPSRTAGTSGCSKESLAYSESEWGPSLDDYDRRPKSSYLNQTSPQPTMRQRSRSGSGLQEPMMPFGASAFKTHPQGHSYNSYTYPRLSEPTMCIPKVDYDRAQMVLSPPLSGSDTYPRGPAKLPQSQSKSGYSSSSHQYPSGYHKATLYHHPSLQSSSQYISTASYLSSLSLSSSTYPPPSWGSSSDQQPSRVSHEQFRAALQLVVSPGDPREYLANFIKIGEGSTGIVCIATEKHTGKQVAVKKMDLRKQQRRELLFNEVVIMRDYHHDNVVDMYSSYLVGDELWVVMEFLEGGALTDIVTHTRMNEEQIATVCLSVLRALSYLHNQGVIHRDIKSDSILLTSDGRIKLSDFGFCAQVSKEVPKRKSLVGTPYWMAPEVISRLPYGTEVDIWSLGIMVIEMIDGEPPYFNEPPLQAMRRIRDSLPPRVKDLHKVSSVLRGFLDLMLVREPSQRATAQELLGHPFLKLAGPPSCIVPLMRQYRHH
Sequence of Calcium/calmodulin-dependent protein kinase type II subunit alpha (Homo sapiens) (Q9UQM7 whole entry, canonical isoform): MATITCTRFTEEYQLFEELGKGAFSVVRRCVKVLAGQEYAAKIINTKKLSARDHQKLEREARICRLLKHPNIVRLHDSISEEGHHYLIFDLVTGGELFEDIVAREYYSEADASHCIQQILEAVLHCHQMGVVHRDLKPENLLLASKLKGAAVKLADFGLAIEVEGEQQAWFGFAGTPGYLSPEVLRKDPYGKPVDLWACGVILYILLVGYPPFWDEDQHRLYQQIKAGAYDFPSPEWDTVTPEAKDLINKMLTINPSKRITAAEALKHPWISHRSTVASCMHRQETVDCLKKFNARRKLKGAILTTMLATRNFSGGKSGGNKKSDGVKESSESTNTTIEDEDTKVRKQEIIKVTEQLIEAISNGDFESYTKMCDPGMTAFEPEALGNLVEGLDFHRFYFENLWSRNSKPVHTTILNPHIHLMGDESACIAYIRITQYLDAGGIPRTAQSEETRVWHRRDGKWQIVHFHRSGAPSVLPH

As to `Cc1cc(Nc2nc(-c3ccccc3)nc3ccccc23)n[nH]1`, the ΔTm (in general, the shift of the melting midpoint relative to a reference) in experiment [1] stood at 9.5 °C; in [2], 10.8 °C; in experiment [3] it was 11.1 °C; in experiment [4] it was 6.6 °C; in experiment [5] it was 5.4 °C; in experiment [6], 5.8 °C. Moreover, the ΔTm came to 12.2 °C in experiment [7]; 2.2 °C in [8]; 0.7 °C in [9]; 1.4 °C in [10]; 2.8 °C in experiment [11]; 3.3 °C in experiment [12]. Further, the ΔTm in [13] came to 1.5 °C; in experiment [14], 5.7 °C; in experiment [15] it was 3 °C; in [16] it was 1.7 °C; in experiment [17], 0.2 °C; in experiment [18] it was 1.3 °C. Also, the ΔTm in experiment [19] came to 3.5 °C; in experiment [20], 5.2 °C.

With `O=c1c(O)c(-c2ccc(O)c(O)c2)oc2cc(O)cc(O)c12` [QUERCETIN], the ΔTm in experiment [1] is 8.1 °C; in [2] it was 1.7 °C; in [3], 5.5 °C; in [4] it was -0.2 °C; in experiment [5] it was 1.1 °C; in experiment [6], 2.3 °C. Moreover, the ΔTm in experiment [7] was 8.2 °C; in experiment [8] it was 9.3 °C; in experiment [9], 8.6 °C; in [10], 4.1 °C; in experiment [11], 2.9 °C; in experiment [12], 2.4 °C. For the same compound, the thermal shift (ΔTm) turned out to be 1.6 °C in [13]; 4.8 °C in [14]; 5.3 °C in [15]; 8.1 °C in experiment [16]; 0.8 °C in experiment [17]; 7.4 °C in experiment [18]. Besides, the results for the thermal shift (ΔTm) in experiment [19] and in experiment [20] were 5.4 °C and 0.5 °C, respectively.

As to `O=C1NC(=O)c2c1c1c3ccccc3[nH]c1n1cncc21` [ISOGRANULATIMIDE], the thermal shift (ΔTm) is 5.4 °C in [1]; 9.3 °C in [2]; 5.4 °C in experiment [3]; 3.7 °C in experiment [4]; -0.5 °C in experiment [5]; 3.6 °C in experiment [6]. The thermal shift (ΔTm) in [7] turned out to be 7.5 °C; in [8], 1.3 °C; in experiment [9], 8 °C; in experiment [10] it was 3.6 °C; in [11] it was 3.6 °C; in experiment [12], 3.6 °C. Further, the ΔTm in [13] was 3.7 °C; in [14], 6.6 °C; in experiment [15] it was 5.2 °C; in experiment [16], 9 °C; in experiment [17] it was 1.2 °C; in [18], 3.2 °C. Besides, the values for the ΔTm in [19] and in experiment [20] were 2.3 °C and 1.3 °C, respectively.

As to `COc1cc(O)c2c(c1)oc(=O)c1c3cc(O)c(O)cc3oc21` [WEDELOLACTONE], the shift in melting temperature (ΔTm) was 3.2 °C in experiment [1]; 1.4 °C in experiment [2]; 1.3 °C in experiment [3]; -1 °C in [4]; -0.6 °C in experiment [5]; -0.8 °C in experiment [6]. For the same compound, the thermal shift (ΔTm) was 2.2 °C in experiment [7]; 3 °C in experiment [8]; 2.2 °C in [9]; 1.2 °C in [10]; 1.5 °C in [11]; 2.7 °C in [12]. In addition, the shift in melting temperature (ΔTm) in experiment [13] was -0.3 °C; in experiment [14], 1.8 °C; in experiment [15] it was -4.5 °C; in experiment [16], 3.4 °C; in experiment [17], 1.5 °C; in experiment [18] it was 2.9 °C. The shift in melting temperature (ΔTm) in [19] is 2.1 °C; in experiment [20] it was -0.3 °C.

On to `COc1cccc(-c2cc(=O)c3ccccc3o2)c1N`, for which the ΔTm is -0.3 °C in experiment [1]; 0.3 °C in experiment [2]; 0.4 °C in experiment [3]; 0.6 °C in experiment [4]; 0.4 °C in experiment [5]; -0.5 °C in experiment [6]. For the same compound, the shift in melting temperature (ΔTm) in experiment [7] was 1 °C; in experiment [8] it was 0.7 °C; in [9], 0.2 °C; in experiment [10], -0.5 °C; in experiment [11], 0.1 °C; in experiment [12], 0.5 °C. Further, the ΔTm in [13] is 0 °C; in experiment [14] it was -0.5 °C; in [15], 0.3 °C; in experiment [16] it was 0.9 °C; in experiment [17] it was 0.3 °C; in [18], 0.2 °C. The ΔTm in experiment [19] was 0 °C; in [20] it was -0.2 °C.

For the compound `CSc1nc(-c2ccc(F)cc2)c(-c2ccnc(NC(C)c3ccccc3)c2)[nH]1` (racemic), the ΔTm in [1] is -0.1 °C; in [2], 0.9 °C; in [3] it was 1.9 °C; in experiment [4] it was -0.3 °C; in experiment [5] it was -0.3 °C; in experiment [6], -0.4 °C. Also, the thermal shift (ΔTm) is 0.9 °C in [7]; 0.1 °C in [8]; -0.2 °C in experiment [9]; 0.6 °C in experiment [10]; 3.4 °C in [11]; 3.4 °C in [12]. Besides, the thermal shift (ΔTm) is 0.8 °C in [13]; 0.7 °C in experiment [14]; -0.5 °C in experiment [15]; -0.4 °C in [16]; 0.4 °C in experiment [17]; 0.3 °C in experiment [18]. Moreover, the ΔTm in [19] was -0.2 °C; in experiment [20], 0 °C.

Regarding `CCOc1cc2ncnc(Nc3cccc(Br)c3)c2cc1OCC`, the ΔTm in [1] amounted to 0.8 °C; in experiment [2], 0.2 °C; in experiment [3], 10.3 °C; in [4], 0.1 °C; in experiment [5], 0.8 °C; in experiment [6] it was 0.1 °C. Besides, the ΔTm in [7] is 2.7 °C; in [8], 2.9 °C; in [9] it was 1.1 °C; in experiment [10], 0.7 °C; in experiment [11] it was -0.2 °C; in experiment [12], 0.6 °C. The ΔTm in experiment [13] was found to be 0 °C; in [14], 2.6 °C; in [15] it was 0.4 °C; in experiment [16], 0.2 °C; in experiment [17] it was 0.2 °C; in experiment [18], 3.8 °C. Further, the values for the ΔTm in experiment [19] and in experiment [20] were 0.3 °C and 0.4 °C, respectively.
